Structures can show the parent of a compound that is named as a salt.
Columns and labels:
human heart organoids [1] = experiment: Immunofluorescence, confocal microscopy and image analysis; assay type: cell-based
Method: Immunofluorescence. Human heart organoids were transferred from the round bottom ultra-low attachment 96 well plate to 1.5 mL microcentrifuge tubes (Eppendorf) using a cut 200 μL pipette tip (to increase tip bore diameter as to not disturb the organoid). Organoids were fixed in 4% paraformaldehyde (VWR) in PBS for 30 minutes. Following, organoids were washed using PBS-Glycine (1.5 g/L) three times for 5 minutes each. Organoids were then blocked and permeabilized using a solution containing 10% Donkey Normal Serum (Sigma), 0.5% Triton X-100 (Sigma), and 0.5% BSA (Thermo Fisher Scientific) in PBS on a thermal mixer at 300 rpm at 4° C. overnight. Organoids were then washed 3 times using PBS and incubated with primary antibodies (Table 4) within a solution containing 1% Donkey Normal Serum, 0.5% Triton X-100, and 0.5% BSA in PBS (hereafter termed “Antibody Solution”) on a thermal mixer at 300 rpm at 4° C. for 24 hours.
Following, organoids were washed 3 times for 5 minutes each using PBS. Organoids were then incubated with secondary antibodies (Table 4) in Antibody Solution on a thermal mixer at 300 rpm at 4° C. for 24 hours in the dark. Subsequently, organoids were washed 3 times for 5 minutes each using PBS and mounted on glass microscope slides (Fisher Scientific). 90 μm Polybead Microspheres (Polyscience, Inc.) were placed between the slide and a No. 1.5 coverslip (VWR) to provide support pillars such that the organoids could retain three dimensionality. Organoids were transferred to the glass microscope slides using a cut 200 uL pipette tip and mounted using a clearing solution described previously^153. T-tubule staining was performed using FITC-conjugated Wheat Germ Agglutinin (WGA) lectins (Sigma).
Confocal Microscopy and Image Analysis. […] Images were analyzed using Fiji. […] Thresholds were generated for the equalized image intensity values.
(§1) Ondansetron treatment. Ondansetron hydrochloride (Sigma) was prepared at 200 μM in DMSO and was further diluted in DMEM/F12 ((Dulbecco's Modified Eagle Medium/Nutrient Mixture F-12) before being sterile filtered via a 0.22 μm PVDF filter (Sigma). Ondansetron was applied to heart organoids at final concentrations of 1 μM, 10 μM, and 100 μM in EMM2/1 medium, and was applied from Day 9 to Day 20 of culture. Organoids were collected on Day 30 for analysis.
DEAB and Retinoic Acid treatment. 4-Diethylaminobenzaldehyde (DEAB) (Sigma) was prepared at 1 M in DMSO, diluted further to 10 mM using DMSO, then finally diluted to 1 mM in DMEM/F12. Retinoic Acid (RA) (Sigma) was prepared at 1 M in DMSO, and diluted to 100 μM in DMEM/F12. Diluted solutions of DEAB and RA were sterile filtered via 0.22 μm PVDF filters (Sigma). […] DEAB, RA, and DEAB+RA were applied to heart organoids from Day 20 to Day 30 of culture using the EMM2/1 strategy. Organoids were collected on Day 30 for analysis.

human heart organoids [2] = experiment: FlipGFP (active caspase 3) apoptosis reporter fluorescence in heart organoids; conditions: 10 μM, 48 hours, Day 28 to Day 30, EMM2/1 organoids
human heart organoids [3] = system: human heart organoids
human heart organoids [4] = experiment: Voltage imaging with di-8-ANEPPS; assay type: cell-based; conditions: 10 and 100 μM conditions
Method: Voltage imaging. Voltage activity within human heart organoids was assessed using di-8-ANEPPS (Thermo Fisher Scientific). Di-8-ANEPPS was solubilized in DMSO per the manufacturer's instructions. A 15 μM solution of di-8-ANEPPS was prepared in respective medium (Control, MM, EMM1, etc.). Organoids were washed twice using RPMI 1640 basal medium, then di-8-ANEPPS was added at a final concentration of 10 μM and incubated for 30 minutes at 37° C. and 5% CO2. Organoids were then washed twice using their respective medium (Control, MM, EMM1, etc.) and transferred to a chambered coverglass slide (Cellvis) using a cut 200 μL pipette tip. Videos were acquired using a Cellvivo microscope (Olympus) at 100 frames per second over 10 total seconds as an image stack at either 20× magnification (ondansetron) or 100× magnification (maturation electrophysiology). Samples were excited at 465 nm excitation and 630 nm emission was collected. Data was processed using Fiji and Microsoft Excel. Baseline F0 of fluorescence intensity F was calculated using the average of the lowest 50 intensity values in the acquired dataset. Fluorescence change ΔF/F0 was calculated using the same method as with Calcium imaging presented above. APD30 and APD90 were measured from the midpoint of the upstroke until 30% or 90% repolarization, respectively^162.
as §1

human heart organoids [5] = experiment: Brightfield microscopy of organoid size and beating; assay type: cell-based
human heart organoids [6] = experiment: Real time RT-PCR gene expression in heart organoids; assay type: cell-based; conditions: day 30, EMM2/1 organoids
Method: Real time RT-PCR. Organoids were collected at day 20, 21, 23, 25, and 30 and stored in RNAprotect (Qiagen) at −20° C. RNA was extracted using the Qiagen RNEasy Mini Kit according largely to the manufacturer's instructions. Organoids were lysed using the Bead Mill 4 Homogenizer (Fisher Scientific) at speed 2 for 30 seconds. RNA concentration was measured using a NanoDrop One (Thermo Fisher Scientific). A minimum threshold of […] was required to proceed with reverse transcription. cDNA was generated using the Quantitect Reverse Transcription Kit (Qiagen) and stored at −20° C. Primers for real time qPCR were designed using the Primer Quest tool (Integrated DNA Technologies). SYBR Green (Thermo Fisher Scientific) was used as the DNA intercalating dye and the amplifier for the reaction vessel. Real time qPCR was performed using the QuantStudio 5 Real-Time PCR system (Applied Biosystems) using a total reaction volume of 20 μL. Gene expression levels were normalized to HPRT1 expression in each independent sample. Log base 2 fold change values were obtained using the double delta CT method.

[7] = 10 μM, Day 20 to Day 30, EMM2/1 organoids

For `CCN(CC)c1ccc(C=O)cc1` [DEAB, 4-Diethylaminobenzaldehyde], the “MYL3+ area relative to Untreated organoids” value (human heart organoids [1]; [7]) was 0.35 fold and the “NR2F2+ area relative to Untreated organoids” value (human heart organoids [1]; [7]) was 0.42 fold.

For `COc1cccc2c1C(=O)c1c(O)c3c(c(O)c1C2=O)C[C@@](O)(C(=O)CO)C[C@@H]3O[C@H]1C[C@H](N)[C@H](O)[C@H](C)O1` [doxorubicin, Doxorubicin hydrochloride], the “FlipGFP fluorescence (apoptosis), positive control” value (human heart organoids [2]) was “high levels of fluorescence”.

`Cc1nccn1CC1CCc2c(c3ccccc3n2C)C1=O` (stereo not shown) [ondansetron, Ondansetron hydrochloride] was tested, and the “apoptosis (FlipGFP fluorescence)” value (human heart organoids [3]) was “does not contribute to apoptosis”, the “APD30 compared to Untreated” value (human heart organoids [4]) was “increased” and the “APD90 compared to Untreated” value (human heart organoids [4]) was “increased”. For the same compound, the “action potential amplitude compared to Untreated” value (human heart organoids [4]) was “decreased”, the “action potential frequency compared to Untreated” value (human heart organoids [4]) was “decreased frequencies” and the “beating of heart organoids over time” value (human heart organoids [5]; 100 μM condition) was “most marked loss in cardiac activity”. The “beating of heart organoids over time” value (human heart organoids [5]; day 0 to day 30, all concentrations) was “progressive loss of beating”, the “MYL2 expression relative to Untreated” value (human heart organoids [6]; 10 μM) was 0.58 fold and the “MYL2 expression relative to Untreated” value (human heart organoids [6]; 100 μM) was 0.40 fold. The “MYL2+ area relative to Untreated” value (human heart organoids [1]; 10 μM, day 9 until day 30, EMM2/1 organoids) was 0.55 fold, the “MYL2+ area relative to Untreated” value (human heart organoids [1]; 100 μM, day 9 until day 30, EMM2/1 organoids) was 0.18 fold and the “structural organization of organoids compared to Untreated” value (human heart organoids [1]; 100 μM, day 30, EMM2/1 organoids) was “structurally less organized”. The “MYL7+ area” value (human heart organoids [1]; 1, 10 and 100 μM, day 9 until day 30, EMM2/1 organoids) was “remained unchanged”.

Reference: patent US20260275292A1, “MATURATION MEDIUM COMPOSITIONS AND METHODS FOR HUMAN HEART ORGANOID MATURATION” (Board of Trustees of Michigan State University, priority 2022, published 2026)
